In ChEMBL document CHEMBL4725262, “Potent antiviral activity of novel multi-substituted 4-anilinoquin(az)olines” (Bioorg Med Chem Lett, 2020):

Legend:
[1] = Cytotoxicity against human Huh-7 cells infected with DENV2 by alamar blue assay; type: cell-based
dengue virus type 2 [2] = test: Antiviral activity against DENV2 New Guinea C strain infected in Huh7 cells after 48 hrs by renilla luciferase assay; type: functional, organism-based, Huh-7; conditions: for EC90: Huh-7, time 48 hrs
dengue virus type 2 [3] = test: Potency index, ratio of erlotinib EC50 to compound EC50 for antiviral activity against DENV2 New Guinea C strain infected in Huh7 cells after 48 hrs by renilla luciferase assay; type: functional, Huh-7
[4] = Selectivity index, ratio of CC50 for human Huh7 cells to EC50 for DENV2 New Guinea C; type: toxicity; conditions: read-out: Ratio CC50/EC50
[5] = Dengue virus, New Guinea C, Huh-7, 48 h

SMILES | CC50 [1] | EC50 (dengue virus type 2 [2]; [5]) | Ratio EC50 (dengue virus type 2 [3]) | EC50 (dengue virus type 2 [2]; huh-7) | EC90 (dengue virus type 2 [2]; Dengue virus, New Guinea C) | selectivity ratio [4]
COc1ccc2ncnc(Nc3cc(OC)c(OC)c(OC)c3)c2c1 | > 10 µM | > 10 µM | – | – | – | –
COc1cc(Nc2ncnc3ccc(Cl)cc23)cc(OC)c1OC | > 10 µM | 1 µM | >10 | – | – | –
Clc1ccc(-c2ccc(-c3nc(NCc4cccnc4)nc4ccccc34)s2)cc1 | – | 0.07 µM | – | – | – | –
CC(C)(C)Oc1cccc2nc(N)nc(N)c12 | – | 0.0028 µM | – | – | – | –
COc1cc2ncnc(Nc3cc(OC)c(OC)c(OC)c3)c2cc1OC | > 10 µM | 6.6 µM | – | – | – | –
COc1cc2nccc(Nc3cc(OC)c(OC)c(OC)c3)c2cc1OC | > 10 µM | > 10 µM | – | – | – | –
COc1cc(Nc2ccnc3cc(Cl)ccc23)cc(OC)c1OC | > 10 µM | > 10 µM | – | – | – | –
COc1cc(-c2cnc3c(N4C[C@@H](C)O[C@@H](C)C4)snc3c2)ccc1N | – | 0.87 µM | – | – | – | –
COc1ccc(-c2cnc3[nH]cc(C#Cc4cccnc4)c3c2)cc1OC | – | 0.72 µM | – | – | – | –
COc1cc(Nc2ccnc3ccc(Br)cc23)cc(OC)c1OC | > 10 µM | 0.08 µM | >80 | 0.122 µM | – | –
COc1cc(Nc2ncnc3ccc(C(F)(F)F)cc23)cc(OC)c1OC | > 10 µM | > 10 µM | – | – | – | –
CCN(CC)c1ccc(Oc2ccc(-c3[nH]c4cccc(F)c4c(=O)c3C)cc2F)cc1 | – | 0.007 µM | – | – | – | –
COc1cc(N(C)c2ccnc3ccc(C(F)(F)F)cc23)cc(OC)c1OC | > 10 µM | 10 µM | – | – | – | –
COc1cc(Nc2ccnc3ccc(I)cc23)cc(OC)c1OC | > 10 µM | 0.82 µM | – | – | – | –
COc1cc(Nc2cc(C)nc3ccc(C(F)(F)F)cc23)cc(OC)c1OC | > 10 µM | 0.91 µM | – | – | – | –
COc1cc(Nc2ccnc3ccc(Cl)cc23)cc(OC)c1OC | > 10 µM | 0.52 µM | – | – | – | –
COc1cc(Nc2ccnc3cc(C#N)ccc23)cc(OC)c1OC | > 10 µM | 3.3 µM | – | – | – | –
COc1cc(Nc2ccnc3ccc(C#N)cc23)cc(OC)c1OC | > 10 µM | 0.76 µM | – | – | – | –
COc1ccc2c(Nc3cc(OC)c(OC)c(OC)c3)ccnc2c1 | > 10 µM | > 10 µM | – | – | – | –
COc1cc(Nc2ccnc3ccccc23)cc(OC)c1OC | > 10 µM | 8.2 µM | – | – | – | –
COc1ccc2nccc(Nc3cc(OC)c(OC)c(OC)c3)c2c1 | > 10 µM | 0.75 µM | 8 | – | – | –
COc1cc(Nc2ccnc3cc(I)ccc23)cc(OC)c1OC | > 10 µM | 3.6 µM | 2 | – | – | –

SMILES | CC50 [1] | EC50 (dengue virus type 2 [2]; [5]) | Ratio EC50 (dengue virus type 2 [3]) | EC50 (dengue virus type 2 [2]; huh-7) | EC90 (dengue virus type 2 [2]; Dengue virus, New Guinea C) | selectivity ratio [4]
COc1cc(Nc2ncnc3ccccc23)cc(OC)c1OC | > 10 µM | 2.8 µM | 2 | – | – | –
COc1cc(Nc2ccnc3ccc(F)cc23)cc(OC)c1OC | > 10 µM | 5.2 µM | – | – | – | –
COc1cc(Nc2c(C#N)cnc3ccc(S(C)(=O)=O)cc23)cc(OC)c1OC | > 10 µM | > 10 µM | – | – | – | –
COc1cc(Nc2c(C#N)cnc3ccc(Br)cc23)cc(OC)c1OC | > 10 µM | 0.082 µM | >80 | – | 0.151 µM | –
COc1cc(Nc2ccnc3cc(C(F)(F)F)ccc23)cc(OC)c1OC | > 10 µM | 6.8 µM | – | – | – | –
COc1cc(Nc2ccnc3ccc(S(C)(=O)=O)cc23)cc(OC)c1OC | > 10 µM | 0.84 µM | – | – | – | –
COc1cc(Nc2c(C#N)cnc3cc(Cl)ccc23)cc(OC)c1OC | > 10 µM | > 10 µM | – | – | – | –
COc1cc(Nc2c(C#N)cnc3cc(Br)ccc23)cc(OC)c1OC | > 10 µM | > 10 µM | – | – | – | –
COc1cc(Nc2ncnc3ccc(F)cc23)cc(OC)c1OC | > 10 µM | > 10 µM | – | – | – | –
COc1ccc2c(Nc3cc(OC)c(OC)c(OC)c3)c(C#N)cnc2c1 | > 10 µM | > 10 µM | – | – | – | –
COc1cc(Nc2cc(C)nc3ccc(Br)cc23)cc(OC)c1OC | 2.5 µM | 0.28 µM | >20 | – | 0.53 µM | 10
COc1cc(Nc2ncnc3ccc(S(C)(=O)=O)cc23)cc(OC)c1OC | > 10 µM | > 10 µM | – | – | – | –
COc1cc(Nc2ccnc3cc(F)ccc23)cc(OC)c1OC | > 10 µM | 4.1 µM | – | – | – | –
COc1cc(Nc2c(C#N)cnc3ccc(Cl)cc23)cc(OC)c1OC | > 10 µM | 1.3 µM | – | – | – | –
COc1cc(Nc2cc(C)nc3ccc(F)cc23)cc(OC)c1OC | > 10 µM | 2.3 µM | – | – | – | –
COc1cc(Nc2cc(C)nc3cc(C(F)(F)F)ccc23)cc(OC)c1OC | > 10 µM | > 10 µM | – | – | – | –
COc1ccc2nc(C)cc(Nc3cc(OC)c(OC)c(OC)c3)c2c1 | > 10 µM | 10 µM | – | – | – | –
COc1cc(Nc2ncnc3cc(F)c(F)cc23)cc(OC)c1OC | > 10 µM | > 10 µM | >10 | – | – | –
COc1cc(Nc2c(C#N)cnc3ccc(I)cc23)cc(OC)c1OC | > 10 µM | 0.079 µM | >80 | – | 0.125 µM | –
COc1cc(Nc2ccnc3cc(F)c(F)cc23)cc(OC)c1OC | 5.5 µM | 1 µM | – | – | – | –
COc1cc(Nc2ccnc3c(C)cccc23)cc(OC)c1OC | > 10 µM | > 10 µM | – | – | – | –
COc1ccc2c(Nc3cc(OC)c(OC)c(OC)c3)cc(C)nc2c1 | > 10 µM | > 10 µM | – | – | – | –

SMILES | CC50 [1] | EC50 (dengue virus type 2 [2]; [5]) | Ratio EC50 (dengue virus type 2 [3]) | EC50 (dengue virus type 2 [2]; huh-7) | EC90 (dengue virus type 2 [2]; Dengue virus, New Guinea C) | selectivity ratio [4]
COc1cc(Nc2c(C#N)cnc3cc(I)ccc23)cc(OC)c1OC | > 10 µM | 4.7 µM | – | – | – | –
COc1cc(Nc2ncnc3cc(Cl)ccc23)cc(OC)c1OC | > 10 µM | 6.1 µM | – | – | – | –
COc1cc(Nc2ccnc3cc(Br)ccc23)cc(OC)c1OC | > 10 µM | 8.4 µM | – | – | – | –
COc1cc2nc(C)cc(Nc3cc(OC)c(OC)c(OC)c3)c2cc1OC | > 10 µM | 10 µM | – | – | – | –
COc1cc(Nc2ncnc3ccc(Br)cc23)cc(OC)c1OC | > 10 µM | 0.97 µM | – | – | – | –
COc1cc(Nc2ncnc3cc(I)ccc23)cc(OC)c1OC | 5.8 µM | 2.9 µM | – | – | – | –
COc1cc(Nc2c(C#N)cnc3ccccc23)cc(OC)c1OC | > 10 µM | > 10 µM | – | – | – | –
COc1cc(Nc2ncnc3ccc(I)cc23)cc(OC)c1OC | > 10 µM | 1 µM | – | – | – | –
COc1cc(Nc2ncnc3ccc(C#N)cc23)cc(OC)c1OC | > 10 µM | 3.7 µM | – | – | – | –
COc1cc(Nc2ncnc3cc(C(F)(F)F)ccc23)cc(OC)c1OC | > 10 µM | 5.1 µM | – | – | – | –
COc1ccc2c(Nc3cc(OC)c(OC)c(OC)c3)ncnc2c1 | > 10 µM | 2.7 µM | 2 | – | – | –
COc1ccc2ncc(C#N)c(Nc3cc(OC)c(OC)c(OC)c3)c2c1 | > 10 µM | 3.1 µM | – | – | – | –
COc1cc(Nc2ncnc3cc(F)ccc23)cc(OC)c1OC | > 10 µM | > 10 µM | – | – | – | –
COc1cc(Nc2ncnc3cc(C#N)ccc23)cc(OC)c1OC | > 10 µM | 1.4 µM | – | – | – | –
COc1cc(Nc2ncnc3ccc(C)cc23)cc(OC)c1OC | > 10 µM | > 10 µM | – | – | – | –
COc1cc(Nc2cc(C)nc3ccccc23)cc(OC)c1OC | > 10 µM | 8 µM | – | – | – | –
COc1cc(Nc2ncnc3cc(Br)ccc23)cc(OC)c1OC | > 10 µM | 2 µM | – | – | – | –
COc1cc(Nc2ccnc3ccc(C(C)(C)C)cc23)cc(OC)c1OC | > 10 µM | 7.4 µM | – | – | – | –
COc1cc(Nc2ccnc3ccc(C(F)(F)F)cc23)cc(OC)c1OC | > 10 µM | 0.59 µM | – | – | – | –
COc1cc2ncc(C#N)c(Nc3cc(OC)c(OC)c(OC)c3)c2cc1OC | > 10 µM | 5.5 µM | – | – | – | –
C#Cc1cccc(Nc2ncnc3cc(OCCOC)c(OCCOC)cc23)c1 [ERLOTINIB] | – | 6.5 µM | – | – | – | –
